Test results from patent US8716184B2, “Herbicidal composition comprising the hydrates of saflufenacil and glyphosate or glufosinate” (Bayer Cropscience AG, priority 2010, dated 2014).

Assays:
Assay type in all cases: in vivo
Digitaria sanguinalis = test: Herbicidal action on Digitaria sanguinalis (Table 1)
Method: (§1) The herbicidal efficacy of the active compounds or active compound mixtures was scored visually by comparing the treated pots (soil) with untreated controls. The damage and development of all above-ground plant parts was recorded. Scoring was done on a percentage scale (example values: 100% action=all plants dead or not emerged; 50% action=50% of the plants and green plant parts dead or not emerged; 0% action=no discernible action=like control plot). The score figures of in any case 2 repetitions (pots) were averaged.
(§2) When applying the combinations according to the invention, herbicidal effects are frequently observed on a harmful plant species which exceed the formal total of the effects of the herbicides present when these are applied by themselves. Alternatively, it is observed in some cases that a lower application rate is required for the herbicide combination in order to achieve the same effect on a harmful plant species in comparison with the individual products. […] When the data observed already exceed the formal total of the data in the experiments with individual applications, they likewise exceed the expected value according to Colby, which is calculated using the formula below and is likewise regarded as an indication of synergism (cf. S. R. Colby; in Weeds 15 (1967) pp. 20 to 22): E=A+B−(A·B/100)

Cirsium Arvense = test: Herbicidal action on Cirsium arvense (Table 2a)
Method: as §1, §2

Abutilon teophrastis = test: Herbicidal action, dicotyledonous weeds, Abutilon teophrastis (Table 2b); conditions: applied at 2-3 leaf stage, scoring 28 days after application
Method: as §1
(§3) Seeds or rhizome pieces of monocotyledonous and dicotyledonous weeds are placed in sandy loam in pots, covered with soil and grown in the greenhouse under good growth conditions (temperature, atmospheric humidity, water supply). Three weeks after sowing, the test plants are treated in the three-leaf stage with the compositions according to the invention. The compositions according to the invention, formulated as wettable powders or emulsion concentrates, are sprayed onto the green plant parts in various dosages using an application rate of 300 to 800 L of water/ha (converted). After the test plants have remained in the greenhouse under optimum growth conditions for about 3 to 4 weeks, the effect of the preparations is scored visually in comparison with untreated controls (scoring as in Example 1). […]

Euphorbia heterophylla = test: Herbicidal action, dicotyledonous weeds, Euphorbia heterophylla (Table 2b); conditions: applied at 2-3 leaf stage, scoring 28 days after application
Method: as §1, §3

Xanthium strumarium = test: Herbicidal action, dicotyledonous weeds, Xanthium strumarium (Table 2b); conditions: applied at 2-3 leaf stage, scoring 28 days after application
Method: as §1, §3

Setaria faberii = test: Herbicidal action, monocotyledonous weeds, Setaria faberii (Table 2c); conditions: applied at 1-2 leaf stage, scoring 28 days after application
Method: as §1
as §3, with “Three weeks after sowing, the test plants are treated in the three-leaf stage with the compositions according to the invention.” left out, “1). The compositions according to the invention also have good herbicidal post-emergence action against a broad spectrum of economically important weed grasses and broad-leaf weeds.” for “1).”

Setaria viridis = test: Herbicidal action, monocotyledonous weeds, Setaria viridis (Table 2c); conditions: applied at 1-2 leaf stage, scoring 28 days after application
Method: as §1
as §3, with “Three weeks after sowing, the test plants are treated in the three-leaf stage with the compositions according to the invention.” left out, “1). The compositions according to the invention also have good herbicidal post-emergence action against a broad spectrum of economically important weed grasses and broad-leaf weeds.” for “1).”

Bidens pinata = test: Herbicidal action on Bidens pinata (Table 3)
Method: as §1, §2

## CC(C)N(C)S(=O)(=O)NC(=O)c1cc(-n2c(=O)cc(C(F)(F)F)n(C)c2=O)c(F)cc1Cl [Hydrate of the compound of the formula (I) = (Ba)] [2-chloro-5-[3,6-dihydro-3-methyl-2,6-dioxo-4-(trifluoromethyl)-1-(2H)-pyrimidinyl]-4-fluoro-N-[[methyl-(1-methylethyl)amino]sulfonyl]benzamide]
Digitaria sanguinalis; dose 25 g AS/ha
  Herbicidal action [%] on Digitaria sanguinalis: 0%
Cirsium Arvense; dose 25 g AS/ha
  Herbicidal action [%] Cirsium Arvense: 45%
Abutilon teophrastis; dose 6.25 g AS/ha
  Herbicidal action [%] Abutilon teophrastis: 75%
Euphorbia heterophylla; dose 6.25 g AS/ha
  Herbicidal action [%] Euphorbia heterophylla: 30%
Xanthium strumarium; dose 6.25 g AS/ha
  Herbicidal action [%] Xanthium strumarium: 30%
Setaria faberii; dose 6.25 g AS/ha
  Herbicidal action [%] Setaria faberii: 30%
Setaria viridis; dose 6.25 g AS/ha
  Herbicidal action [%] Setaria viridis: 25%
Bidens pinata; dose 6.25 g AS/ha
  Herbicidal action [%] Bidens pinata: 40%

## COCc1cnc(C2=NC(C)(C(C)C)C(=O)N2)c(C(=O)O)c1 (centres unmarked) [Imazamox (C18), imazamox]
Bidens pinata; dose 0.5 g AS/ha
  Herbicidal action [%] Bidens pinata: 0%
Bidens pinata; dose 0.5 g AS/ha, listed as imazamox (C18)
  Herbicidal action [%] Bidens pinata: no herbicidal action

## CP(=O)(O)CCC(N)C(=O)O (centres unmarked) [Glufosinate-ammonium (A2a), glufosinate-ammonium]
Digitaria sanguinalis; dose 450 g AS/ha
  Herbicidal action [%] on Digitaria sanguinalis: 15%

## CC(C)N.O=C(O)CNCP(=O)(O)O [Glyphosate-isopropylammonium (A1b), glyphosate-isopropylammonium]
Cirsium Arvense; dose 675 g AS/ha
  Herbicidal action [%] Cirsium Arvense: 25%
Abutilon teophrastis; dose 100 g AS/ha
  Herbicidal action [%] Abutilon teophrastis: 10%
Euphorbia heterophylla; dose 100 g AS/ha
  Herbicidal action [%] Euphorbia heterophylla: 10%
Xanthium strumarium; dose 100 g AS/ha
  Herbicidal action [%] Xanthium strumarium: 10%
Setaria faberii; dose 100 g AS/ha
  Herbicidal action [%] Setaria faberii: 10%
Setaria viridis; dose 100 g AS/ha
  Herbicidal action [%] Setaria viridis: 20%
Bidens pinata; dose 100 g AS/ha
  Herbicidal action [%] Bidens pinata: 10%

## CC(C)N(C)S(=O)(=O)NC(=O)c1cc(-n2c(=O)cc(C(F)(F)F)n(C)c2=O)c(F)cc1Cl [Compound of the formula (I) (amorphous), 2-chloro-5-[3,6-dihydro-3-methyl-2,6-dioxo-4-(trifluoromethyl)-1-(2H)-pyrimidinyl]-4-fluoro-N-[[methyl-(1-methylethyl)amino]sulfonyl]benzamide]
Digitaria sanguinalis; dose 25 g AS/ha
  Herbicidal action [%] on Digitaria sanguinalis: 0%
Cirsium Arvense; dose 25 g AS/ha
  Herbicidal action [%] Cirsium Arvense: 55%
